The numbers were not newly measured in patent publication US20250319089A1, “STABLE LYOPHILISATES COMPRISING 5,10-METHYLENE-(6R)-TETRAHYDROFOLIC ACID” (Merck Patent GMBH, priority 2022, published 2025), which cites them from elsewhere.

Structures are written as SMILES.

On to `Nc1nc2c(c(=O)[nH]1)N1CN(c3ccc(C(=O)N[C@@H](CCC(=O)O)C(=O)O)cc3)C[C@H]1CN2` [5,10-methylene-(6R,S)-tetrahydrofolic acid], for which the “purity after 24 hours compared to the starting purity” value (24 hours following dissolution in water) was 44.9%. The “purity after 7 hours” value (re-constituted lyophilizate, 7 hours) is listed as 84%. The “loss of purity per hour (degradation rate)” value (re-constituted lyophilizate, linear regression) was 2.3 % purity per hour.
